Test results reported in ChEMBL document CHEMBL3045862, “PRE-CLINICAL AND CLINICAL PHARMACOKINETICS OF THE DIASTEREOMERS OF ARTEETHER, A POTENT ANTIMALARIAL” (Med Chem Res, 2004).

Assays:
[1] = Tmax in Macaca mulatta (Rhesus monkey) at 7.5 mg/kg, administered intramuscularly; type: ADME, organism-based; parameters: dose 7.5 mg/kg, route intramuscular; settings: in vivo, im
Rattus norvegicus [2] = assay: Clearance in Rattus norvegicus Sprague-Dawley (rat) at 9 mg/kg, administered intramuscularly; type: ADME, organism-based; parameters: dose 9 mg/kg, route intramuscular; settings: in vivo, im
[3] = Tmax in Rattus norvegicus Sprague-Dawley (rat) at 30 mg/kg, po; type: ADME, organism-based; parameters: dose 30 mg/kg, route oral; settings: in vivo
[4] = Cmax in Rattus norvegicus Sprague-Dawley (rat) at 9 mg/kg, administered intramuscularly; type: ADME, organism-based; parameters: dose 9 mg/kg, route intramuscular; settings: in vivo, im
Rattus norvegicus [5] = assay: AUC (0 to infinity) in Rattus norvegicus Sprague-Dawley (rat) at 2 mg/kg, iv; type: ADME, organism-based, Plasma; parameters: time infinity, dose 2 mg/kg, route intravenous; settings: in vivo
Rattus norvegicus [6] = assay: AUC (0 to infinity) in Rattus norvegicus Sprague-Dawley (rat) at 30 mg/kg, administered intramuscularly; type: ADME, organism-based, Plasma; parameters: time infinity, dose 30 mg/kg, route intramuscular; settings: in vivo, im
Rattus norvegicus [7] = assay: Dose normalized AUC in Rattus norvegicus Sprague-Dawley (rat) at 17.5 mg/kg, po; type: ADME, organism-based; parameters: dose 17.5 mg/kg, route oral; settings: in vivo
[8] = Mean residence time in Rattus norvegicus Sprague-Dawley (rat) at 9 mg/kg, administered intramuscularly; type: ADME, organism-based; parameters: dose 9 mg/kg, route intramuscular; settings: in vivo, im
[9] = AUC (0 to infinity) in Homo sapiens (human) at 150 mg; type: ADME, organism-based; parameters: dose 150 mg, time infinity; settings: plasma
[10] = Cmax in Rattus norvegicus Sprague-Dawley (rat) at 17.5 mg/kg, administered intramuscularly; type: ADME, organism-based; parameters: dose 17.5 mg/kg, route intramuscular; settings: in vivo, im
[11] = Tmax in Macaca mulatta (Rhesus monkey) at 50 mg/kg, po; type: ADME, organism-based; parameters: dose 50 mg/kg, route oral; settings: in vivo
Rattus norvegicus [12] = assay: Clearance in Rattus norvegicus Sprague-Dawley (rat) at 17.5 mg/kg, administered intramuscularly; type: ADME, organism-based; parameters: dose 17.5 mg/kg, route intramuscular; settings: in vivo, im
[13] = Mean residence time in Macaca mulatta (Rhesus monkey) at 50 mg/kg, po; type: ADME, organism-based; parameters: dose 50 mg/kg, route oral; settings: in vivo
Rattus norvegicus [14] = assay: AUC (0 to infinity) in Rattus norvegicus Sprague-Dawley (rat) at 9 mg/kg, administered intramuscularly; type: ADME, organism-based, Plasma; parameters: time infinity, dose 9 mg/kg, route intramuscular; settings: in vivo, im
Rattus norvegicus [15] = assay: Clearance in Rattus norvegicus Sprague-Dawley (rat) at 17.5 mg/kg, po; type: ADME, organism-based; parameters: dose 17.5 mg/kg, route oral; settings: in vivo
Homo sapiens = organism: Homo sapiens; assay: Dose normalized AUC in Homo sapiens (human) at 150 mg; type: ADME, organism-based; settings: in vivo
[16] = Elimination half life in Homo sapiens (human) at 150 mg; type: ADME, organism-based; settings: in vivo, read-out: beta t1/2 (converted)
[17] = Elimination half life in Rattus norvegicus Sprague-Dawley (rat) at 30 mg/kg, po; type: ADME, organism-based; parameters: dose 30 mg/kg, route oral; settings: in vivo, read-out: beta t1/2 (converted)
[18] = Elimination half life in Macaca mulatta (Rhesus monkey) at 7.5 mg/kg, administered intramuscularly; type: ADME, organism-based; parameters: dose 7.5 mg/kg, route intramuscular; settings: in vivo, im, read-out: beta t1/2 (converted)
[19] = Elimination half life in Rattus norvegicus Sprague-Dawley (rat) at 2 mg/kg, iv; type: ADME, organism-based; parameters: dose 2 mg/kg, route intravenous; settings: in vivo, read-out: beta t1/2 (converted)
[20] = Volume of distribution in Homo sapiens (human) at 150 mg; type: ADME, organism-based; settings: in vivo
[21] = Mean residence time in Rattus norvegicus Sprague-Dawley (rat) at 17.5 mg/kg, administered intramuscularly; type: ADME, organism-based; parameters: dose 17.5 mg/kg, route intramuscular; settings: in vivo, im
Rhesus monkey [22] = assay: AUC (0 to infinity) in Macaca mulatta (Rhesus monkey) at 4 mg/kg, iv; type: ADME, organism-based, Plasma; parameters: time infinity, dose 4 mg/kg, route intravenous; settings: in vivo
Rattus norvegicus [23] = assay: Volume of distribution in Rattus norvegicus Sprague-Dawley (rat) at 30 mg/kg, administered intramuscularly; type: ADME, organism-based; parameters: dose 30 mg/kg, route intramuscular; settings: in vivo, im
Rhesus monkey [24] = assay: Volume of distribution in Macaca mulatta (Rhesus monkey) at 7.5 mg/kg, administered intramuscularly; type: ADME, organism-based; parameters: dose 7.5 mg/kg, route intramuscular; settings: in vivo, im
Rhesus monkey [25] = assay: Dose normalized AUC in Macaca mulatta (Rhesus monkey) at 7.5 mg/kg, administered intramuscularly; type: ADME, organism-based; parameters: dose 7.5 mg/kg, route intramuscular; settings: in vivo, im
Rattus norvegicus [26] = assay: AUC (0 to infinity) in Rattus norvegicus Sprague-Dawley (rat) at 9 mg/kg, po; type: ADME, organism-based, Plasma; parameters: time infinity, dose 9 mg/kg, route oral; settings: in vivo
[27] = Tmax in Rattus norvegicus Sprague-Dawley (rat) at 17.5 mg/kg, po; type: ADME, organism-based; parameters: dose 17.5 mg/kg, route oral; settings: in vivo
Rhesus monkey [28] = assay: AUC (0 to infinity) in Macaca mulatta (Rhesus monkey) at 50 mg/kg, po; type: ADME, organism-based, Plasma; parameters: time infinity, dose 50 mg/kg, route oral; settings: in vivo
[29] = Cmax in Macaca mulatta (Rhesus monkey) at 7.5 mg/kg, administered intramuscularly; type: ADME, organism-based; parameters: dose 7.5 mg/kg, route intramuscular; settings: in vivo, im
Rattus norvegicus [30] = assay: Dose normalized AUC in Rattus norvegicus Sprague-Dawley (rat) at 9 mg/kg, po; type: ADME, organism-based; parameters: dose 9 mg/kg, route oral; settings: in vivo
[31] = Cmax in Homo sapiens (human) at 150 mg; type: ADME, organism-based; parameters: dose 150 mg; settings: in vivo
[32] = Mean residence time in Homo sapiens (human) at 150 mg; type: ADME, organism-based; settings: in vivo
[33] = Tmax in Rattus norvegicus Sprague-Dawley (rat) at 17.5 mg/kg, administered intramuscularly; type: ADME, organism-based; parameters: dose 17.5 mg/kg, route intramuscular; settings: in vivo, im
Rattus norvegicus [34] = assay: Volume of distribution in Rattus norvegicus Sprague-Dawley (rat) at 9 mg/kg, po; type: ADME, organism-based; parameters: dose 9 mg/kg, route oral; settings: in vivo
Rhesus monkey [35] = assay: Dose normalized AUC in Macaca mulatta (Rhesus monkey) at 50 mg/kg, po; type: ADME, organism-based; parameters: dose 50 mg/kg, route oral; settings: in vivo
[36] = Mean residence time in Rattus norvegicus Sprague-Dawley (rat) at 9 mg/kg, po; type: ADME, organism-based; parameters: dose 9 mg/kg, route oral; settings: in vivo
Rattus norvegicus [37] = assay: Volume of distribution in Rattus norvegicus Sprague-Dawley (rat) at 17.5 mg/kg, administered intramuscularly; type: ADME, organism-based; parameters: dose 17.5 mg/kg, route intramuscular; settings: in vivo, im
[38] = Tmax in Homo sapiens (human) at 150 mg; type: ADME, organism-based; settings: in vivo
Rhesus monkey [39] = assay: Clearance in Macaca mulatta (Rhesus monkey) at 4 mg/kg, iv; type: ADME, organism-based; parameters: dose 4 mg/kg, route intravenous; settings: in vivo
Rattus norvegicus [40] = assay: AUC (0 to infinity) in Rattus norvegicus Sprague-Dawley (rat) at 30 mg/kg, po; type: ADME, organism-based, Plasma; parameters: time infinity, dose 30 mg/kg, route oral; settings: in vivo
[41] = Cmax in Rattus norvegicus Sprague-Dawley (rat) at 17.5 mg/kg, po; type: ADME, organism-based; parameters: dose 17.5 mg/kg, route oral; settings: in vivo

CCO[C@@H]1O[C@@H]2O[C@]3(C)CC[C@H]4[C@H](C)CC[C@@H]([C@H]1C)[C@@]24OO3 [ALPHA-ARTEETHER]
Tmax [1]: 1 h
CL (Rattus norvegicus [2]): 40 mL/min/kg
Tmax [3]: 5 min
Cmax [4]: 52.3 ng/mL
AUC (Rattus norvegicus [5]): 131.7 ng·h/mL
AUC (Rattus norvegicus [6]): 601.1 ng·h/mL
AUC/dose (Rattus norvegicus [7]): 9.7 ng·h/mL
MRT [8]: 47.8 h
AUC(0-inf) [9]: 1300 ng·h/mL
Cmax [10]: 184 ng/mL
Tmax [11]: 0.222 h
CL (Rattus norvegicus [12]): 68.3 mL/min/kg
MRT [13]: 3.4 h
AUC (Rattus norvegicus [14]): 1058.5 ng·h/mL
CL (Rattus norvegicus [15]): 1708 mL/min/kg
AUC/dose (Homo sapiens): 1721.9 ng·h/mL
half-life [16]: 13.2 h
half-life [17]: 1.5 h
half-life [18]: 6.7 h
half-life [19]: 0.55 h
Vd [20]: 12 L/kg
MRT [21]: 23.5 h
AUC (Rhesus monkey [22]): 754.4 ng·h/mL
Vd (Rattus norvegicus [23]): 253.3 L/kg
Vd (Rhesus monkey [24]): 36.8 L/kg
AUC/dose (Rhesus monkey [25]): 285.3 ng·h/mL
AUC (Rattus norvegicus [26]): 73.8 ng·h/mL
Tmax [27]: 5 min
AUC (Rhesus monkey [28]): 6.6 ng·h/mL
Cmax [29]: 96.7 ng/mL
AUC/dose (Rattus norvegicus [30]): 27.3 ng·h/mL
Cmax [31]: 60.7 ng/mL
MRT [32]: 19.6 h
Tmax [33]: 0.5 h
Vd (Rattus norvegicus [34]): 122.2 L/kg
AUC/dose (Rhesus monkey [35]): 0.4 ng·h/mL
MRT [36]: 4.3 h
Vd (Rattus norvegicus [37]): 129.3 L/kg
Tmax [38]: 4.8 min
CL (Rhesus monkey [39]): 26.7 mL/min/kg
AUC (Rattus norvegicus [40]): 111.5 ng·h/mL
Cmax [41]: 37.6 ng/mL
